Literature values as cited in paper PMC7135267, “Modified linear regression predicts drug-target interactions accurately” (PLoS ONE, 2020).

Tested on: CFTR
Conditions: rats, caffeine intake

In the case of `Cn1c(=O)c2c(ncn2C)n(C)c1=O` [D00528, Caffeine], the “CFTR chloride secretion in intestine” value is listed as “increased”.
